Measurements: patent publication US10744114B2, “Use of eupatilin as pharmaceutical composition for prevention and treatment of fibrosis using EMT inhibitory activity” (OSTEONEUROGEN INC., priority 2016, dated 2020)

System: ONGHEPA1 cells
Experiment: Global gene expression analysis (RNA-Seq) and target gene analysis
Assay type: cell-based, mouse
Conditions: TGF-β vs TGF-β+eupatilin, 24 hr
Procedure: For a mechanism for the therapeutic effect on fibrosis, the global gene expression of DMSO-treated ONGHEPA1 cells (a control group), ONGHEPA1 cells in which fibrosis was induced by TGF-β, and ONGHEPA1 cells treated with TGF-β and eupatilin was measured.
The cells were treated with DMSO, TGF-β or eupatilin for 24 hr, and total RNA was isolated to manufacture a library, after which about 10,000 expressed mRNA species in a total transcriptome of 30 Gb were analyzed using an Illumina High-seq sequencer.

In the case of `COc1ccc(-c2cc(=O)c3c(O)c(OC)c(O)cc3o2)cc1OC` [eupatilin, 2-(3,4-dimethoxyphenyl)-5,7-dihydroxy-6-methoxy-chromone], the “Log2fc Intersectin 1 (SH3 domain protein 1A) (Itsn1)” value is reported as “infinite”, the “Log2fc Laminin, alpha 4 (Lama4)” value is reported as −1.29 and the “Log2fc Latent transforming growth factor beta binding protein 1 (Ltbp1)” value is reported as 3.32. For the same compound, the “Log2fc Latent transforming growth factor beta binding protein 2 (Ltbp2)” value was “−infinite”, the “Log2fc Latent transforming growth factor beta binding protein 4 (Ltbp4)” value was “−infinite” and the “Log2fc Leprecan 1 (Lepre1)” value was 1.75. For the same compound, the “Log2fc Lethal giant larvae homolog 1 (Ligi1)” value was “infinite”, the “Log2fc Lysyl oxidase-like 2 (Loxl2)” value was 1.93 and the “Log2fc Microtubule-associated protein 4 (Map4)” value was “−infinite”. The “Log2fc Multiple coagulation factor deficiency 2 (Mcfd2)” value was −1.28, the “Log2fc Natriuretic peptide receptor 3 (Npr3)” value was 2.82 and the “Log2fc Nischarin (Nisch)” value was “infinite”. For the same compound, the “Log2fc Olfactomedin 2 (Olfm2)” value was 1.9, the “Log2fc Oxysterol binding protein-like 9 (Osbpl9)” value was “−infinite” and the “Log2fc Palladin, cytoskeletal associated protein (Palld)” value was “infinite”. For the same compound, the “Log2fc Periostin (Postn)” value was −4.92, the “Log2fc Perlecan (Heparan sulfate proteoglycan2) (Hspg2)” value was “infinite” and the “Log2fc Pleckstrin and sec7 domain containing 3 (Psd3)” value was 1.43. The “Log2fc Pleiotrophin (Ptn)” value was 2.06, the “Log2fc Procollagen lysine, 2-oxoglutarate 5-dioxygenase 2 (Plod2)” value was −1.48 and the “Log2fc Procollagen-lysine, 2-oxoglutarate 5-dioxygenase 3 (Plod3)” value was −2.01. For the same compound, the “Log2fc Procollagen-proline, 2-oxoglutarate 4-dioxygenase (proline 4-hydroxylase), alpha 1 polypeptide (P4ha1)” value was −1.81, the “Log2fc Prosaposin (Psap)” value was “infinite” and the “Log2fc Prostate androgen-regulated mucin-like protein 1 (Parm1)” value was 1.57. For the same compound, the “Log2fc Protein FAM 53B (Fam53b)” value was “infinite”, the “Log2fc Protein disulfide isomerase associated 6 (Pdia6)” value was 1.85 and the “Log2fc Ring finger protein 145 (Rnf145)” value was “−infinite”. For the same compound, the “Log2fc Septin2 (Sept2)” value was “infinite”, the “Log2fc Serin (or cysteine) peptidase inhibitor, clade F, member 1 (Serpinf1)” value was 1.99 and the “Log2fc Serine (or cysteine) peptidase inhibitor, clade E, member 1 (Serpine 1)” value was −1.78. For the same compound, the “Log2fc Slit homolog 3 (Slit3)” value was 3.65, the “Log2fc Spectrin alpha, erythrocytic 1 (Spta1)” value was 4.01 and the “Log2fc Spectrin beta, non-erythrocytic 1 (Sptbn1)” value was “infinite”. For the same compound, the “Log2fc Spectrin repeat containing nuclear envelope 2 (Syne2)” value was “−infinite”, the “Log2fc Surfeit 1 (SURF1)” value was “−infinite” and the “Log2fc Synaptopodin (Synpo)” value was “−infinite”. The “Log2fc TEA Domain Transcription factor 1 (TEAD1)” value was “−infinite”, the “Log2fc TLC domain-containing protein 2 (Tlcd2)” value was “infinite” and the “Log2fc Tankyrase, TRF1-interacting ankyrin-related ADP-ribose polymerase 2 (Tnks2)” value was “−infinite”. For the same compound, the “Log2fc Tenascin C (Tnc)” value was 5.1, the “Log2fc Thrombospondin, type I domain containing 7A (Thsd7a)” value was 5.06 and the “Log2fc Thymoma viral proto-oncogene 1 (Akt1)” value was “−infinite”. The “Log2fc Tissue inhibitor of metalloproteinase 3 (Timp3)” value was “infinite”, the “Log2fc TraB domain containing 2B (Trabd2b)” value was 2.75 and the “Log2fc Transformation/transcription domain-associated protein (Trrap)” value was “−infinite”. For the same compound, the “Log2fc Transforming, acidic coiled-coil containing protein 2 (Tacc2)” value was “infinite”, the “Log2fc Tropomyosin 1, alpha (Tpm1)” value was “infinite” and the “Log2fc Tubulin-specific chaperone d (Tbcd)” value was 2.11. For the same compound, the “Log2fc Ubiquitin-like modifier activating enzyme 1 (Uba1)” value was “infinite”, the “Log2fc Vinculin (Vcl)” value was “infinite” and the “Log2fc WNK lysine deficient protein kinase 1 (Wnk1)” value was “−infinite”. The “Log2fc Willians-Beuren syndrome chromosome region 17 homolog (Wbscr17)” value was −2.83, the “Log2fc c-fos induced growth factor (Figf)” value was 2.49 and the “Log2fc rho/rac guanine nucleotide exchange factor (GEF) 2 (Arhgef2)” value was “−infinite”. The “Log2fc v-myc myelocytomatosis viral related oncogene, neuroblastoma derived (Mycn)” value was 2.05.
